According to patent US20250177425A1, “SAIKOSAPONIN C AS COMPOSITION FOR TREATING OR PREVENTING AGE-RELATED VASCULAR DISEASES INCLUDING ARTERIOSCLEROSIS” (AGINGTARGET, INC., priority 2022, published 2025):

Key:
HPAEC [1] = assay: MTT assay, high glucose-induced growth inhibition; assay type: cell-based, human; details: 5 μM and 20 μM pretreatment 2 hours, 33 mM high glucose 72 hours, dose-dependent
Protocol: (§1) A high-fat diet test system at the cellular level was established using 33 mM high glucose (HG), which is 6 times the standard glucose concentration of 5.5 mM in the vascular endothelial cell culture medium.
(§2) Specifically, two types of endothelial cells, namely, human umbilical vein endothelial cells (HUVECs) and human pulmonary artery endothelial cells (HPAECs), were pretreated with 5 μM and 20 μM of Saikosaponin C (SSc) for 2 hours, and then treated with 33 mM of high glucose for 72 hours. Then, cell growth was analyzed using the MTT assay, which measures the mitochondrial metabolic capacity of living cells.
(§3) Endothelial cell growth was assessed by measuring the absorbance of MTT formazan at a wavelength of 590 nm.

HUVEC [2] = assay: MTT assay, high glucose-induced growth inhibition; assay type: cell-based, human; details: 5 μM and 20 μM pretreatment 2 hours, 33 mM high glucose 72 hours, dose-dependent
Protocol: as §1, §2, §3

HPAEC [3] = assay: Trypan blue staining, viable cell count under high glucose; assay type: cell-based, human; details: 5 μM and 20 μM pretreatment 2 hours, 33 mM high glucose 1 week, dose-dependent
Protocol: (§4) Similar to Experimental Example 1, a high-fat diet evaluation system at the cell level was established.
(§5) Specifically, two types of vascular endothelial cells, namely, HUVEC and HPAEC cells, were pretreated with Saikosaponin C at concentrations of 5 μM and 20 μM for 2 hours, and then treated with high glucose at a concentration of 33 mM for 1 week. The number of viable cells was then analyzed by Trypan blue staining. The number of viable cells was based on the number of cells in the control group (none) set to “100”.

HUVEC [4] = assay: as above; assay type: cell-based, human; details: 5 μM and 20 μM pretreatment 2 hours, 33 mM high glucose 1 week, dose-dependent
Protocol: as §4, §5

HPAEC [5] = assay: SA-β-gal staining, high glucose-induced senescence; assay type: cell-based, human; details: 5 μM and 20 μM pretreatment 2 hours, 33 mM high glucose 72 hours, dose-dependent
Protocol: (§6) Similar to Experimental Example 1, a high-fat diet evaluation system at the cellular level was established.
(§7) Specifically, two types of vascular endothelial cells, namely, HUVEC and HPAEC cells, were pretreated with Saikosaponin C at concentrations of 5 μM and 20 μM for 2 hours, and then treated with high glucose at a concentration of 33 mM for 72 hours (for SA-β-gal staining) or 48 hours (for vascular senescence marker protein analysis). Then, the degree of cellular senescence was measured through SA-β-gal staining and measured as the ratio of the total cells to cells stained in blue (SA-β-gal positive). In addition, the expression of vascular senescence marker proteins such as PAI-1, ICAM-1, and VCAM-1 was analyzed.
(§8) Specifically, the senescence of vascular endothelial cells was evaluated by SA-β-gal staining to measure the activity of β-galactosidase, which is an enzyme present in the lysosome, an organelle within the cell (FIG. 3C and FIG. 3D) and this was represented as a graph (FIG. 3A and FIG. 3B). In addition, FIGS. 3E and 3F show the results of Western blotting to determine the expression of vascular senescence marker proteins such as PAI-1, ICAM-1, and VCAM-1 in two types of vascular endothelial cells (HUVEC, HPAEC).

HUVEC [6] = assay: SA-β-gal staining, high glucose-induced senescence; assay type: cell-based, human; details: 5 μM and 20 μM pretreatment 2 hours, 33 mM high glucose 72 hours, dose-dependent
Protocol: as §6, §7, §8

[7] = test system: PAI-1, ICAM-1, and VCAM-1 in HPAEC; assay: Western blotting of vascular senescence marker proteins; assay type: cell-based, human; details: 5 μM and 20 μM pretreatment 2 hours, 33 mM high glucose 48 hours, dose-dependent
Protocol: as §6, §7, §8

[8] = test system: PAI-1, ICAM-1, and VCAM-1 in HUVEC; assay: as above; assay type: cell-based, human; details: 5 μM and 20 μM pretreatment 2 hours, 33 mM high glucose 48 hours, dose-dependent
Protocol: as §6, §7, §8

Sirt1 in HPAEC = assay: Sirt1 activity assay kit and Western blotting (expression, phosphorylation); assay type: cell-based, human; details: 5 μM and 20 μM pretreatment 2 hours, 33 mM high glucose 36 hours, dose-dependent
Protocol: as §6
(§9) Specifically, two types of vascular endothelial cells, namely, HUVEC and HPAEC cells, were pretreated with Saikosaponin C at concentrations of 5 μM and 20 μM for 2 hours, and then treated with high glucose at a concentration of 33 mM for 36 hours. Then, Sirt1 activity, protein expression and phosphorylation levels were analyzed.
(§10) Sirt1 activity was measured using the Sirt1 Activity Assay Kit (FIG. 7A and FIG. 7B), and Sirt1 protein expression and phosphorylation (Ser27, Ser47) were measured through Western blotting (FIG. 7C and FIG. 7D).

Sirt1 in HUVEC = assay: as above; assay type: cell-based, human; details: 5 μM and 20 μM pretreatment 2 hours, 33 mM high glucose 36 hours, dose-dependent
Protocol: as §6, §9, §10

[9] = test system: THP-1 cells differentiated into macrophages; assay: Macrophage foam cell formation by ox-LDL (Oil Red O staining); assay type: cell-based, human; details: PMA-differentiated THP-1 macrophages; 5 μM and 20 μM pretreatment 2 hours, ox-LDL 100 μg/ml 24 hours
Protocol: The differentiated macrophages were pretreated with Saikosaponin C at concentrations of 5 μM and 20 μM for 2 hours, and then treated with oxidized LDL (ox-LDL) (100 μg/ml), a foam cell inducer, for 24 hours. Then, the formation of foam cells from macrophages was observed. The foam cell formation was evaluated by microscopic analysis after Oil Red O staining of adsorbed lipid molecules and absorbance analysis using a microplate reader.
The nucleus was stained with hematoxylin dye for 1 minute.

NLRP3 inflammasome [10] = target: T1, NLRP3 inflammasome (Homo sapiens, UniProt Q96P20); assay: NLRP3 inflammasome activity: caspase-1 cleavage (Western blotting); details: PMA-differentiated THP-1 macrophages; 20 μM pretreatment 2 hours, MSU 200 μg/ml 6 hours
NLRP3 inflammasome [11] = target: T1, NLRP3 inflammasome; assay: NLRP3 inflammasome activity: IL-1β secretion (Solid Phase Sandwich ELISA); details: PMA-differentiated THP-1 macrophages; 20 μM pretreatment 2 hours, MSU 200 μg/ml 6 hours

T1 sequence (Q96P20 whole entry): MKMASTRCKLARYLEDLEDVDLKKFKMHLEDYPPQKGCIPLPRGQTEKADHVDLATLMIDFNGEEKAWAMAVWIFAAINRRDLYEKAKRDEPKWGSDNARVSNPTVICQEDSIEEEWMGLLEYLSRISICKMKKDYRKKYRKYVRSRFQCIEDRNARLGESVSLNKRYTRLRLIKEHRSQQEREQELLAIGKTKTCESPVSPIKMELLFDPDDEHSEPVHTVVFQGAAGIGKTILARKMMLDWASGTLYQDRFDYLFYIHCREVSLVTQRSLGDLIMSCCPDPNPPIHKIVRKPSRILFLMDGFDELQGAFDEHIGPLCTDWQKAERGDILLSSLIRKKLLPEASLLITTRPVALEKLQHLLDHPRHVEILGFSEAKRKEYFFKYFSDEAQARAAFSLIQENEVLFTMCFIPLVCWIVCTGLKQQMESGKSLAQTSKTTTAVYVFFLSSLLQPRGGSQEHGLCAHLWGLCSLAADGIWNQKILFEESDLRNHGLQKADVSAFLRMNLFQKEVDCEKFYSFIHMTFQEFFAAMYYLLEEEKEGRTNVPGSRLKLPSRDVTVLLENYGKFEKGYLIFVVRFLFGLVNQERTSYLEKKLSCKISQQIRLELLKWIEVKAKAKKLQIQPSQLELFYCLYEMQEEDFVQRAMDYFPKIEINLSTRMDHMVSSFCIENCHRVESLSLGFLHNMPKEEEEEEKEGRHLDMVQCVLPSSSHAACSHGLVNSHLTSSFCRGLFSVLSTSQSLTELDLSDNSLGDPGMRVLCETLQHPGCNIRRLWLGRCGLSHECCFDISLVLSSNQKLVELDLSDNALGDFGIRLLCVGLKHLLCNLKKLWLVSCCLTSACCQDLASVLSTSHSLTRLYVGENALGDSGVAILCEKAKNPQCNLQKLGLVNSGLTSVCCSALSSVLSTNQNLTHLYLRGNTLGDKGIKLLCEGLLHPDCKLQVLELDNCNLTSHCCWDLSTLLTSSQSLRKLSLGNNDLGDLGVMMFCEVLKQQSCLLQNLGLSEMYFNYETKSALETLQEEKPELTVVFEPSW

- caspase-1 cleavage (NLRP3 inflammasome [10]): inhibited
- IL-1β secretion (NLRP3 inflammasome [11]): inhibited
Compound: CC1O[C@@H](O[C@@H]2C(CO[C@@H]3OC(CO)[C@@H](O)C(O)C3O)O[C@@H](O[C@H]3CC[C@]4(C)[C@H]5C=C[C@]67OC[C@@]8(CCC(C)(C)C[C@H]86)[C@@H](O)C[C@@]7(C)[C@]5(C)CC[C@H]4C3(C)C)C(O)C2O)C(O)C(O)[C@H]1O (stereo partly shown) [Saikosaponin C]
- high glucose-induced cell growth inhibition (MTT) (HPAEC [1]): significantly alleviated
- high glucose-induced cell growth inhibition (MTT) (HUVEC [2]): significantly alleviated
- high glucose-induced cell growth inhibition (number of viable cells, Trypan blue) (HPAEC [3]): significantly alleviated
- high glucose-induced cell growth inhibition (number of viable cells, Trypan blue) (HUVEC [4]): significantly alleviated
- high glucose-induced SA-β-gal positive cells (HPAEC [5]): significantly reduced
- high glucose-induced SA-β-gal positive cells (HUVEC [6]): significantly reduced
- expression of vascular senescence marker proteins PAI-1, ICAM-1, and VCAM-1 [7]: reduced
- expression of vascular senescence marker proteins PAI-1, ICAM-1, and VCAM-1 [8]: reduced
- high glucose-induced decrease in Sirt1 enzyme activity, protein expression, and phosphorylation (Sirt1 in HPAEC): significantly alleviated
- high glucose-induced decrease in Sirt1 enzyme activity, protein expression, and phosphorylation (Sirt1 in HUVEC): significantly alleviated
- foam cell formation by lipid deposition (Oil Red O) [9]: suppressed
